According to patent US10738097B2, “Interferon-beta analog peptide” (priority 2017, dated 2020):

Columns and labels:
Type in all cases: in vivo, mouse
[1] = test system: interleukin 1β (IL1β); test: Plasma IL1β of EAE mice, ELISA; details: 21 days after EAE induction
Protocol: (§1) Moreover, after 21 days of EAE induction, mice were euthanized and their blood was obtained via cardiac puncture and plasma was prepared. Expression levels of tumor necrosis factor-alpha (TNFα) and interleukin 1β (IL1β) as circulating inflammatory biomarkers were measured in the plasma using quantitative enzyme-linked immunosorbent assay (ELISA) kits.

[2] = test system: matrix metalloproteinase 9 (MMP9); test: MMP9 gene expression in brain tissue of EAE mice, quantitative real-time PCR; details: 20 mg/kg
Protocol: (§2) In this example, effects of the IFNβ analog peptide as the IFNβ analog peptide on the expression of some related inflammations mediators such as matrix metalloproteinase 2 (MMP2) and matrix metalloproteinase 9 (MMP9) were studied using quantitative real-time polymerase chain reaction (PCR).
(§3) The EAE mice were treated with PBS as the vehicle group, and dosage of the IFNβ analog peptide and IFNβ was 20 mg/kg in IFNβ analog peptide-treated mice and IFNβ-treated mice groups. After that RNA of the cells was extracted and their cDNA was synthesized.

[3] = test system: tumor necrosis factor-alpha (TNFα); test: Plasma TNFα of EAE mice, ELISA; details: 21 days after EAE induction
Protocol: as §1

[4] = test system: matrix metalloproteinase 2 (MMP2); test: MMP2 gene expression in brain tissue of EAE mice, quantitative real-time PCR; details: 20 mg/kg
Protocol: as §2, §3

[5] = test system: CD11b positive cells; test: CD11b positive cells in cerebral cortex of EAE mice; details: 10 and 20 mg/kg, particularly 20 mg/kg, day 21
Protocol: (§4) Furthermore, brain inflammatory response after IFNβ analog peptide treatment as the IFNβ analog peptide was evaluated by measuring the number of IL-17 positive cells, CD11b positive cells, and CD45 positive cells. IL-17 is the most important pro-inflammatory cytokine produced by T-helper cells, CD11b is an activated macrophages and microglia marker, and CD45 is a general leukocytes marker.
(§5) After 21 days of EAE induction, mice were euthanized and were transcardially perfused with PBS. Then, the brains were dissected; cerebral cortex was isolated and snap-frozen in liquid nitrogen.

[6] = test system: IL-17 positive cells; test: IL-17 positive cells in cerebral cortex of EAE mice; details: 10 and 20 mg/kg, particularly 20 mg/kg, day 21
Protocol: as §4, §5

[7] = test system: EAE-induced C57BL/6 mice; test: Clinical score in MOG-induced experimental autoimmune encephalomyelitis (EAE); details: IFNβ analog peptide = SEQ ID No. 1
Protocol: In this example, therapeutic effects of the IFNβ analog peptide with SEQ ID No. 1 on the development of progressive experimental autoimmune encephalomyelitis (EAE) were studied. At first, EAE was induced in 8 weeks old C57BL/6 male mice with a weight between 20 grams and 25 grams. In order to induce EAE, mice were anesthetized with isoflurane and subcutaneously injected with 100 μl of MOG (myelin oligodendrocyte glycoprotein) with a concentration of about 2.5 g/l suspended in 100 μl complete Freund's adjuvant (CFA) into the hind flank. Mice were also intraperitoneally injected with 400 ng of pertussis toxin in 200 μl of phosphate buffered saline (PBS). A second, identical injection of pertussis toxin was given two days following the first immunization. Injections were distributed over four spots, for example about 100 μl per site across the flank areas. […]
After that, in order to conduct clinical evaluation, mice of the experimental groups were blinded scored as follows: score 0 for no overt signs of disease, score 1 for limp tail, score 2 for limp tail and hind limb weakness, score 3 for partial hind limb paralysis of one side (hemiparesis) or both sides (paraparesis), score 4 for complete hind limb paralysis of one side (hemiplegia) or both sides (paraplegia), score 5 for moribund state. The day of immunization was considered as EAE day 0 and clinical behavior of mice was scored daily. […]

[8] = test system: CD45 positive cells; test: CD45 positive cells in cerebral cortex of EAE mice; details: 10 and 20 mg/kg, particularly 20 mg/kg, day 21
Protocol: as §4, §5

[9] = P<0.05, SEQ ID of peptide not stated in Example 6

## IFNβ: Interferon-beta, first-line treatment for relapsing-remitting multiple sclerosis; comparator
[1]
  Reduction of IL1β, IFNβ versus IFNβ analog peptide: reduction of these inflammation mediators was more in IFNβ-treated mice
[1]; P-value<0.05
  Plasma level of IL1β compared to the vehicle group: significant decrease
[2]
  Reduction of MMP9, IFNβ versus IFNβ analog peptide: reduction of these inflammation mediators was more in IFNβ-treated mice
[2]; [9]
  MMP9 gene expression fold change in the brain tissue compared to the vehicle group: significant decrease
[3]
  Reduction of TNFα, IFNβ versus IFNβ analog peptide: reduction of these inflammation mediators was more in IFNβ-treated mice
[3]; P-value<0.05
  Plasma level of TNFα compared to the vehicle group: significant decrease
[4]
  Reduction of MMP2, IFNβ versus IFNβ analog peptide: reduction of these inflammation mediators was more in IFNβ-treated mice
[4]; [9]
  MMP2 gene expression fold change in the brain tissue compared to the vehicle group: significant decrease
[5]
  Percentage of CD11b positive cells in the cerebral cortex: considerably decreased
[6]
  Percentage of IL-17 positive cells in the cerebral cortex: considerably decreased
[7]; 20 mg/kg versus 10 mg/kg
  Effect of raising the dose on EAE clinical symptoms: improved disease protection
[7]; 10 and 20 mg/kg injected on day 14 of EAE induction
  Mean clinical score (AUC) versus vehicle group and EAE group: significant reduction in the clinical score
[8]
  Percentage of CD45 positive cells in the cerebral cortex: considerably decreased
